For one compound, Km results are on record in publication PMC10704959 (Biochemistry, 2023).

The target of this experiment is MoLOX (Pyricularia oryzae, UniProt G4NAP4). The following applies: read-out: KMμM.
Chain of MoLOX (G4NAP4 17-619 limits assumed): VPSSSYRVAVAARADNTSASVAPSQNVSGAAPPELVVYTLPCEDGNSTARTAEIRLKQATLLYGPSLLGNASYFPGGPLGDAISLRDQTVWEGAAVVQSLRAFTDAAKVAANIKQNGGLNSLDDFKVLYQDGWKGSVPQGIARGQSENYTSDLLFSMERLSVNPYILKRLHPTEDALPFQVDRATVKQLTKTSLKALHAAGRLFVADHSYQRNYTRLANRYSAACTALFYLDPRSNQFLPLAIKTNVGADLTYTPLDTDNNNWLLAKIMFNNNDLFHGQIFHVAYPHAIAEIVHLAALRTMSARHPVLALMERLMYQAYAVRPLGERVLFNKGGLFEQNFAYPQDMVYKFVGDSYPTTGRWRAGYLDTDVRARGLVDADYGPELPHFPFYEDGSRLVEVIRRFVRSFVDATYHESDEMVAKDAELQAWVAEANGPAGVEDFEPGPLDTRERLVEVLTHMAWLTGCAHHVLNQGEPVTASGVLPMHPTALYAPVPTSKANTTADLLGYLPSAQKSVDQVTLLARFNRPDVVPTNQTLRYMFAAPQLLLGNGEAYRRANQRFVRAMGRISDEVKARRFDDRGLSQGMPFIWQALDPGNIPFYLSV

Consider `CCCCC/C=C\C/C=C\CCCCCCCC(=O)O` [LA, linoleic acid], for which the Km amounted to 14 ± 2 µM.
